Patent US20250163150A1, “COMBINATION THERAPIES COMPRISING A KRAS INHIBITOR FOR THE TREATMENT OF CANCER” (I-Mab Biopharma US Limited, priority 2022, published 2025)

B1: TJC4: anti-CD47 antibody with VH SEQ ID NO: 1, VL SEQ ID NO: 2 and human IgG4 Fc region comprising S228P substitution (antibody, V domains shown)
VH: EVQLVESGGGLVKPGGSLRLSCAASGLTFERAWMNWVRQAPGKGLEWVGRIKRKTDGETTDYAAPVKGRFSISRDDSKNTLYLQMNSLKTEDTAVYYCAGSNRAFDIWGQGTMVTVSS
VL: DIVMTQSPDSLAVSLGERATINCKSSQSVLYAGNNRNYLAWYQQKPGQPPKLLINQASTRASGVPDRFSGSGSGTEFTLIISSLQAEDVAIYYCQQYYTPPLAFGGGTKLEIK
modifications: human IgG4 Fc with S228P, no entry

How the values were obtained:
[1] = test system: NCI-H358 human NSCLC tumor cells (KRAS G12C); experiment: In vitro phagocytosis of NCI-H358 tumor cells by M0 macrophages (IncuCyte pHrodo); format: cell-based; conditions: AMG 510 pre-treatment 0.1, 1 or 10 μm 24 hours, then M0 macrophage 1:1 and 1 μg/ml TJC4 3-6 hours, FIG. 4A-4C
Description: The following experiments were performed to assess the effects of anti-CD47 antibody TJC4 in combination with the KRAS G12C inhibitor AMG-510 on the in vitro phagocytosis of NCI-H358 human NSCLC tumor cells. As discussed in Example 1, NCI-H358 cells bear the KRAS G12C mutation. The in vitro phagocytosis assays were performed by co-culturing M0 macrophage cells with INCUCYTE® PHRODO®-labeled NCI-H358 tumor cells. Briefly, prior to co-culture, NCI-H358 cells were pre-treated with AMG 510 at the concentrations of 0 μm, 0.1 μm, 1 μm, or 10 μm for 24 hours. The NCI-H358 cells were further incubated with M0 macrophage (at a ratio of 1:1) and 1 μg/ml TJC4 for 3-6 hours. The NCI-H358 cells were then subject to INCUCYTE® ZOOM Live-Cell Imaging System analysis, and the percentage of phagocytosed NCI-H358 was calculated.
Synergy of the combination of AMG 510 and TJC4 in inducing phagocytosis was calculated as: […]
An F value≥1.00 indicates a synergistic effect between AMG-510 and TJC4.

[2] = test system: human NCI-H358 non-small cell lung cancer (NSCLC) tumor xenografts (KRAS G12C); experiment: In vivo anti-tumor efficacy in mice bearing NCI-H358 NSCLC tumor xenografts; set-up: species or system CB17 SCID mice; conditions: 1 mg/kg QD (AMG-510 p.o., TJC4 i.p.), tumor size over 15 days, FIG. 1
Description: The anti-tumor efficacy of anti-CD47 antibody TJC4 in combination with the KRAS G12C inhibitor AMG-510 was assessed in mice bearing human NCI-H358 non-small cell lung cancer (NSCLC) tumor xenografts. The NCI-H358 cell line, which was established from a chemotherapy-naïve NSCLC tumor, harbors a KRAS G12C mutation. TJC4 is an exemplary anti-CD47 antibody that comprises a VH that comprises SEQ ID NO: 1, a VL that comprises SEQ ID NO: 2, and a human IgG4 Fe region that comprises an S228P substitution (EU numbering). AMG-510 is also known as Sotorasib. KRAS G12C mutations, which are common in NSCLC, lead to constitutive activation of the tumor growth-promoting RAS/MAPK signaling pathway. […]
Each animal's tumor size was measured three times per week for 15 days. Tumor size was calculated as V=0.5L×W^2, where L and W indicate long and short diameters of the tumor, respectively. Anti-tumor efficacy of the drugs was also analyzed by TGI % (percentage of tumor growth inhibition). TGI % was calculated as: […]
where TRTV is treatment group RTV, and CRTV is control group RTV. RTV=VN/V1, where V1 is the mean tumor volume measured on Day 1 of administration, and VN is the mean tumor volume measured on Day N of administration.
The synergy of the combination of TJC4 and AMG-510 was calculated as: […]

[3] = test system: LS180 human colon adenocarcinoma cells (KRAS G12D); experiment: In vitro phagocytosis of LS180 colon cancer cells by macrophages (flow cytometry); format: cell-based; conditions: MRTX1133 100 nM, TJC4 0.5 μg/ml, 24 hours; co-culture 2 hours; combination compared to either agent alone, FIG. 5B
Description: LS180 human colon adenocarcinoma cells, which harbor the KRAS G12D mutation were incubated with (a) DMSO, (b) the KRAS G12D inhibitor MRTX1133 (100 nM), (c) anti-CD47 antibody TJC4 (0.5 μg/ml), or (d) MRTX1133 (100 nM)+TJC4 (0.5 μg/ml) for 24 hours and then labeled with 2.5 μM carboxyfluorescein succinimidyl ester (CFSE) for 10 minutes at 37° C. Macrophage cells, which were obtained by human THP-1 leukemia monocyte cells with lipopolysaccharide (LPS) for 24 hours, were cultured in a serum free medium for 2 hours and then added to 2×10^5 CFSE-labeled LS180 cells. The macrophages and the LS180 cells were co-cultured at 37° C. for 2 hours. Macrophages were then stained with an APC-labeled anti-F4/80 antibody, and CFSE+ F4/80+ cells were detected by flow cytometry (10,000 cells analyzed in each sample). The percentage of macrophage-phagocytosed LS180 cells was calculated by dividing the number of CFSE+ F4/80+ cells (see the top right quadrant, i.e., Q2, of each flow cytometry histogram in FIG. 5A) by the number CFSE+ cells (see the top left and right quadrants, i.e., Q1 and Q2, respectively) of each flow cytometry histogram in FIG. 5A). In other words, macrophage-phagocytosed LS180 cells (%)=[Q2/(Q1+Q2)]×100%.

KRAS G12D mutant protein = KRAS G12D mutant protein (Homo sapiens, UniProt P01116, G12D); conditions: Wang et al. (2022) J Med Chem; cited from earlier work
[4] = test system: human LS180 colon adenocarcinoma tumor xenografts; experiment: In vivo anti-tumor efficacy in mice bearing LS180 colon adenocarcinoma xenografts (bioluminescence imaging); set-up: species or system BALB/c nude mice; conditions: MRTX1133 20 mg/kg, TJC4 1 mg/kg, intraperitoneally twice a week for four weeks, FIG. 7B
Description: The anti-tumor efficacy of anti-CD47 antibody TJC4 in combination with the KRAS G12D inhibitor MRTZ1133 was assessed in mice bearing human LS180 colon adenocarcinoma tumor xenografts. Briefly, 5×10^5 LS180 cells were injected into the cecal walls of BALB/c nude mice. Tumors formed and grew stably after 2 weeks. Mice were given one of the following treatments for four weeks: (a) PBS (control); (b) TJC4 (1 mg/kg, intraperitoneally twice a week); (c) MRTX1133 (20 mg/kg, intraperitoneally twice a week); or (d) MRTX1133 (20 mg/kg, intraperitoneally twice a week)+TJC4 (1 mg/kg, intraperitoneally twice a week). Tumor growth was evaluated by Bioluminescence imaging (BLI) every week.

[5] = test system: LS180 human colon adenocarcinoma cells; experiment: Apoptosis of LS180 cells (FITC-Annexin V / PI flow cytometry); format: cell-based; conditions: MRTX1133 100 nM, TJC4 0.5 μg/ml, 24 hours; combination compared to either agent alone, FIG. 6A/6B
Description: LS180 human colon adenocarcinoma cells were incubated with (a) DMSO, (b) the KRAS G12D inhibitor MRTX1133 (100 nM), (c) anti-CD47 antibody TJC4 (0.5 μg/ml), or (d) MRTX1133 (100 nM)+TJC4 (0.5 μg/ml) for 24 hours and then labeled with fluorescein isothiocyanate (FITC)-Annexin V and propidium iodide (PI). Annexin V (or Annexin A5) is a member of the annexin family of intracellular proteins that binds to phosphatidylserine (PS) in a calcium-dependent manner. PS is normally only found on the intracellular leaflet of the plasma membrane in healthy cells, but during early apoptosis, membrane asymmetry is lost, and PS translocates to the external leaflet. FITC-labeled Annexin V can then be used to specifically target and identify apoptotic cells. PI a cell impermeable nucleic acid intercalating dye. Following staining, the cells were analyzed via flow cytometry.

Molecule | TJC4-mediated phagocytosis of NCI-H358 by macrophages [1] | tumor growth inhibition as compared to mice treated with PBS control [2] | phagocytosis of LS180 cells by macrophages [3] | specificity to the KRAS G12D mutant protein relative to wild-type KRAS (KRAS G12D mutant protein) | tumor growth (bioluminescence imaging) [4] | apoptosis of LS180 cells [5]
C=CC(=O)N1CCN(c2nc(=O)n(-c3c(C)ccnc3C(C)C)c3nc(-c4c(O)cccc4F)c(F)cc23)[C@@H](C)C1 [AMG-510, 6-Fluoro-7-(2-fluoro-6-hydroxyphenyl)-(1M)-1-[4-methyl-2-(propan-2-yl)pyridin-3-yl]-4-[(2S)-2-methyl-4-(prop-2-enoyl)piperazin-1-yl]pyrido[2,3-d]pyrimidin-2(1H)-one] | enhanced | did not demonstrate tumor growth inhibition | – | – | – | –
C#Cc1c(F)ccc2cc(O)cc(-c3ncc4c(N5CC6CCC(C5)N6)nc(OC[C@@]56CCCN5C[C@H](F)C6)nc4c3F)c12 [MRTX1133] | – | – | increased | more than 1000 times | inhibited tumor growth | increased
B1 | – | did not demonstrate tumor growth inhibition | increased | – | weak inhibitory effect | increased
